Measured values reported in article PMC3914206.

Key:
panel of 442 kinases [1] = target: T1, panel of 442 kinases (Homo sapiens, UniProt Q9BXA7); type: binding; settings: kinase TSSK1B; compound concentration 10 µM
T1 construct: purchased KINOMEscan
T1 sequence (Q9BXA7 1-367): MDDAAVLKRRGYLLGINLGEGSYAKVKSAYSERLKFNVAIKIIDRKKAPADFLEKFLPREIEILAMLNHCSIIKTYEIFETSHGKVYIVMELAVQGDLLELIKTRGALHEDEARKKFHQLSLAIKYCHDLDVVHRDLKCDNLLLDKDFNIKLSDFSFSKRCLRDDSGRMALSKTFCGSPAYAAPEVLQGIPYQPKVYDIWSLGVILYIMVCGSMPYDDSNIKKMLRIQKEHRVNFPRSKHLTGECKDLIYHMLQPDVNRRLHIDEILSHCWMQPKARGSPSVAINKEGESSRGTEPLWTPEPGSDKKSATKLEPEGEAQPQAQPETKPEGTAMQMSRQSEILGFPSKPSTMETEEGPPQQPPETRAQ
Source text: (§1) We assessed the selectivity of members of this scaffold using the KINOMEscan methodology across a near comprehensive panel of 442 kinases [[18,27]].

panel of 442 kinases [2] = target: T2, panel of 442 kinases (Homo sapiens, UniProt P52333); type: binding; settings: Compound Concentration 10 µM
T2 construct: purchased KINOMEscan
T2 sequence (P52333 1-1124): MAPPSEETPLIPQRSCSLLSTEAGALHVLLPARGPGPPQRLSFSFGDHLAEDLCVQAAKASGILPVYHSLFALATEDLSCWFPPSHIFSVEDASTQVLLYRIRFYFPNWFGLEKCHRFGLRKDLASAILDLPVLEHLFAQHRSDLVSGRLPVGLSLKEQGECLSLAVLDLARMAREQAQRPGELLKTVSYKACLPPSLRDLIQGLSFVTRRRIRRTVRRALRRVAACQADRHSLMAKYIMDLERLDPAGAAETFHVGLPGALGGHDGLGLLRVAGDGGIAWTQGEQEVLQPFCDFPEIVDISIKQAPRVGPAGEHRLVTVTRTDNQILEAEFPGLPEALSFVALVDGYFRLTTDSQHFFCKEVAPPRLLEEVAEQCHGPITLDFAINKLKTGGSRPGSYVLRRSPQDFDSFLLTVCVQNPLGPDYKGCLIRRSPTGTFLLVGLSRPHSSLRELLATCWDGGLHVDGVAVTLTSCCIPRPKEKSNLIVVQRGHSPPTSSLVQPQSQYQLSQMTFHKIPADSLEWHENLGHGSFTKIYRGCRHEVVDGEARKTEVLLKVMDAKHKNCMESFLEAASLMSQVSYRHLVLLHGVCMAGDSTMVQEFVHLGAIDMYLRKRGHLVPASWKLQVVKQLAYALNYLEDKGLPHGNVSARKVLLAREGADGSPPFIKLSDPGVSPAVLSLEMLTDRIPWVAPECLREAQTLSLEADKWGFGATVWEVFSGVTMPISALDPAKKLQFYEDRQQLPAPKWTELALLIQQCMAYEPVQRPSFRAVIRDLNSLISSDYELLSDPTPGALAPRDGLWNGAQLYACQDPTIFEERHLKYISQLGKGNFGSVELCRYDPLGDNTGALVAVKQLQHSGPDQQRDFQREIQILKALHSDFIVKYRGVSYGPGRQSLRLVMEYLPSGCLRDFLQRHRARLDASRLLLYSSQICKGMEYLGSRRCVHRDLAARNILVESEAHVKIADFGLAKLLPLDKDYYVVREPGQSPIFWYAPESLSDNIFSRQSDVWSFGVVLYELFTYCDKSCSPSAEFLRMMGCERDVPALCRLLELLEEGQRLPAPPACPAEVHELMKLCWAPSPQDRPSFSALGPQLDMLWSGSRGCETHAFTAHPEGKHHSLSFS
Source text: as §1

Structure (SMILES)	% Ctrl, TSSK1B (panel of 442 kinases [1]) [% Ctrl]	KINOMEscan: JAK3(JH1domain-catalytic) (panel of 442 kinases [2])
COc1cc(C(=O)N2CCC(N3CCN(C)CC3)CC2)ccc1Nc1ncc2c(n1)N1CCc3cccc(c31)C(=O)N2C [Compound 24]	61	–
CCOc1cc(C(=O)N2CCC(N3CCN(C)CC3)CC2)ccc1Nc1ncc2c(n1)N(C1CCCC1)c1ccccc1C(=O)N2C [Compound 26]	100	100
COc1cc(C(=O)N2CCC(N3CCN(C)CC3)CC2)ccc1Nc1ncc2c(n1)N(C1CCCC1)c1ccccc1C(=O)N2C [Compound 25, 11-cyclopentyl-2-((2-methoxy-4-(4-(4-methylpiperazin-1-yl)piperidine-1-carbonyl)phenyl)amino)-5-methyl-5H-benzo[e]pyrimido[5,4-b][1,4]diazepin-6(11H)-one]	90	100
COc1cc(C(=O)N2CCC(N3CCN(C)CC3)CC2)ccc1Nc1ncc2c(n1)N(C)c1ccccc1C(=O)N2C [15 (LRRK2-IN-1)]	60	100
